{"source": "patent US20230018765A1", "about": "“A 19-NOR C3,3-DISUBSTITUTED C21-N-PYRAZOLYL STEROID AND METHODS OF USE THEREOF” (Sage Therapeutics, Inc., priority 2019, published 2023)", "key": {"GABAA receptors": {"test_system": "GABAA receptors", "experiment": "modulation of GABAA receptors", "details": "synaptic and extrasynaptic GABAA receptors"}, "subjects with MDD [1]": {"test_system": "subjects with MDD", "experiment": "Phase 2 study in subjects with MDD / previous clinical trials of Compound 1"}, "[2]": {"test_system": "adult patients diagnosed with MDD (MADRS total score ≥32 and a HAM-D total score ≥22)", "experiment": "double-blind, randomized placebo-controlled Phase 3 study of Compound 1 in Major Depressive Disorder (efficacy by HAM-D total score, safety and tolerability)", "format": "in vivo, human", "details": "for overall incidence of patients who experienced AEs: 14-day treatment period and 28-day follow up, placebo 48.9%; for AE incidence: Fatigue: placebo 2.6%; for AE incidence: Sedation / subjects having treatment emergent AEs leading to study drug discontinuation: placebo 3.2%; for AE incidence: Dizziness: placebo 3.7%; for AE incidence: Somnolence: placebo 4.2%; for AE incidence: Nausea: placebo 4.7%; for AE incidence: Diarrhea: placebo 5.3%; for AE incidence: Headache: treatment period and 28-day follow up, placebo 7.4%", "procedure": "Compound 1 was evaluated in a double-blind, randomized placebo-controlled Phase 3 study in Major Depressive Disorder (MDD). The evaluated the efficacy, safety and pharmacokinetics of Compound 1 in adult patients diagnosed with MDD (MADRS total score ≥32 and a HAM-D total score ≥22).\nCompound 1 was administered to a patient, either in 20 mg daily doses once a day for 14 days or 30 mg once a day for 14 days."}, "subjects with MDD [3]": {"test_system": "subjects with MDD", "experiment": "HAM-D course after a Compound 1 treatment cycle (response/remission at Day 15, HAM-D at Day 42)", "format": "in vivo, human"}, "[4]": {"details": "among subjects achieving remission or response at Day 15, Day 42"}}}
{"smiles": "C[C@@]1(O)CC[C@H]2[C@H](CC[C@@H]3[C@@H]2CC[C@]2(C)[C@@H](C(=O)Cn4cc(C#N)cn4)CC[C@@H]32)C1", "note": "[Compound 1]", "values": [{"measurement": "mode of action at GABAA receptors", "setting": "GABAA receptors", "value": "positive allosteric modulator of GABAA receptors"}, {"measurement": "efficacy in a Phase 2 study in subjects with MDD", "setting": "subjects with MDD [1]; 30 mg per day", "value": "efficacious"}, {"measurement": "tolerability in a Phase 2 study in subjects with MDD", "setting": "subjects with MDD [1]; 30 mg per day", "value": "well-tolerated"}, {"measurement": "adverse effect in previous clinical trials, morning administration", "setting": "subjects with MDD [1]; administered in the morning", "value": "sedation/somnolence observed"}, {"measurement": "tolerability in previous clinical trials, evening administration", "setting": "subjects with MDD [1]; given in the evening", "value": "improved tolerability"}, {"measurement": "separation from placebo (HAM-D) of the 20 mg dose", "setting": "[2]; 20 mg once a day for 14 days", "value": "did not separate from placebo"}, {"measurement": "tolerability in the trial", "setting": "[2]; 20 mg or 30 mg once a day for 14 days", "value": "generally well tolerated"}, {"measurement": "overall incidence of patients who experienced AEs", "setting": "[2]; 20 mg", "value": 50.0, "unit": "%"}, {"measurement": "patients who reported SAEs during follow-up", "setting": "[2]; 20 mg, SAEs related to cocaine ingestion, Day 39", "value": "one"}, {"measurement": "AE incidence: Fatigue", "setting": "[2]; 20 mg", "value": 1.6, "unit": "%"}, {"measurement": "AE incidence: Sedation", "setting": "[2]; 20 mg", "value": 5.9, "unit": "%"}, {"measurement": "subjects having treatment emergent AEs leading to study drug discontinuation", "setting": "[2]; 20 mg", "value": 1.6, "unit": "%"}, {"measurement": "AE incidence: Dizziness", "setting": "[2]; 20 mg", "value": 7.4, "unit": "%"}, {"measurement": "AE incidence: Somnolence", "setting": "[2]; 20 mg", "value": 5.9, "unit": "%"}, {"measurement": "AE incidence: Nausea", "setting": "[2]; 20 mg", "value": 5.3, "unit": "%"}, {"measurement": "AE incidence: Diarrhea", "setting": "[2]; 20 mg", "value": 5.9, "unit": "%"}, {"measurement": "AE incidence: Headache", "setting": "[2]; 20 mg", "value": 11.2, "unit": "%"}, {"measurement": "onset of effect (HAM-D vs placebo)", "setting": "[2]; 30 mg (n=166)", "value": "beginning at Day 3"}, {"measurement": "LS Mean Difference from placebo, HAM-D total score, Day 3", "setting": "[2]; 30 mg (n=166) vs placebo (n=157), Day 3, p=0.016", "value": "−1.6"}, {"measurement": "AE incidence: Diarrhea", "setting": "[2]; 30 mg (printed 30 rug)", "value": 6.3, "unit": "%"}, {"measurement": "reduction in depressive symptoms in the HAM-D total score at Day 15 (primary endpoint)", "setting": "[2]; 30 mg once a day for 14 days, Day 15, placebo 11.2", "value": 12.6}, {"measurement": "LS Mean Difference, HAM-D total score at Day 15, patients with measurable drug concentrations and HAM-D≥24", "setting": "[2]; 30 mg vs placebo, post-hoc, p=0.017", "value": "−2.6"}, {"measurement": "LS Mean Difference, HAM-D total score at Day 15, patients with HAM-D≥24", "setting": "[2]; 30 mg vs placebo, post-hoc, p=0.032", "value": "−2.3"}, {"measurement": "LS Mean Difference, HAM-D total score at Day 15, patients with measurable drug concentrations", "setting": "[2]; 30 mg vs placebo, post-hoc, p=0.048", "value": "−1.8"}, {"measurement": "overall incidence of patients who experienced AEs", "setting": "[2]; 30 mg", "value": 54.2, "unit": "%"}, {"measurement": "LS Mean Difference from placebo, HAM-D total score, Day 8", "setting": "[2]; 30 mg, Day 8, p=0.008", "value": "−2.1"}, {"measurement": "LS Mean Difference from placebo, HAM-D total score, Day 12", "setting": "[2]; 30 mg, Day 12, p=0.018", "value": "−2.1"}, {"measurement": "LS Mean Difference from placebo, HAM-D total score, Day 15", "setting": "[2]; 30 mg, Day 15, p=0.115", "value": "−1.4"}, {"measurement": "LS Mean Difference from placebo, HAM-D total score, Day 42", "setting": "[2]; 30 mg, Day 42, p=0.807", "value": "−0.5"}, {"measurement": "Change from baseline in HAM-D total score at Day 42", "setting": "[2]; 30 mg, Day 42, placebo −11.7", "value": "−11.9"}, {"measurement": "AE incidence: Fatigue", "setting": "[2]; 30 mg", "value": 6.8, "unit": "%"}, {"measurement": "AE incidence: Sedation", "setting": "[2]; 30 mg", "value": 4.7, "unit": "%"}, {"measurement": "subjects having treatment emergent AEs leading to study drug discontinuation", "setting": "[2]; 30 mg", "value": 2.1, "unit": "%"}, {"measurement": "AE incidence: Dizziness", "setting": "[2]; 30 mg", "value": 5.7, "unit": "%"}, {"measurement": "AE incidence: Somnolence", "setting": "[2]; 30 mg", "value": 6.8, "unit": "%"}, {"measurement": "AE incidence: Nausea", "setting": "[2]; 30 mg", "value": 3.6, "unit": "%"}, {"measurement": "Change from baseline in HAM-D total score at Day 15, patients with HAM-D≥24", "setting": "[2]; 30 mg, post-hoc, n=124, placebo −11.4", "value": "−13.7"}, {"measurement": "Change from baseline in HAM-D total score at Day 15, patients with measurable drug concentrations", "setting": "[2]; 30 mg, post-hoc, n=151, placebo −11.2", "value": "−13.0"}, {"measurement": "Change from baseline in HAM-D total score at Day 15, patients with measurable drug concentrations and HAM-D≥24", "setting": "[2]; 30 mg, post-hoc, placebo −11.4", "value": "−14.0"}, {"measurement": "patients who experienced serious adverse events (SAEs) during treatment", "setting": "[2]; 30 mg, suicide attempt Day 5, bile duct stone after Day 2", "value": "Two"}, {"measurement": "patients who reported SAEs during follow-up", "setting": "[2]; 30 mg, syncope and associated injuries, Day 28", "value": "one"}, {"measurement": "AE incidence: Headache", "setting": "[2]; 30 mg", "value": 6.3, "unit": "%"}, {"measurement": "durability of improvements in depressive symptoms, double-blind portion", "setting": "[2]; all treatment groups, through Day 42", "value": "sustained in all treatment groups through Day 42"}, {"measurement": "AEs of loss of consciousness", "setting": "[2]; any group", "value": "no ABs of loss of consciousness"}, {"measurement": "suicidal ideation or suicidal behavior by Columbia Suicide Severity Rating Scale (C-SSRS)", "setting": "[2]; compared to baseline", "value": "no signal fir increased suicidal ideation or suicidal behavior"}, {"measurement": "durability of improvement in depressive symptoms, long-term follow-up", "setting": "[2]; patients who completed long-term follow-up up to 6 months, preliminary data", "value": "maintenance of improvement in depressive symptoms"}, {"measurement": "subjects achieving remission or response at Day 15", "setting": "subjects with MDD [3]; Day 15", "value": 78.6, "unit": "%"}, {"measurement": "subjects with HAM-D≥22 at Day 42", "setting": "subjects with MDD [3]; [4]", "value": 6.1, "unit": "%"}, {"measurement": "subjects with a HAM-D score of 16 to 21 at Day 42", "setting": "subjects with MDD [3]; [4]", "value": 18.2, "unit": "%"}]}
